# Measured values reported in ChEMBL document CHEMBL1201862, “PubChem BioAssay data set” (2004).
# Activity calls are given as the source filed them. Rule as the data show it, for most assays here: actives have a measured EC50 and inactives only a lower limit.
# Key:
# [1] = fluconazole-exposed Candida albicans growth modulators – fluorescence, retest, confirmation (AID 2467); format: functional, cell-based
# [2] = NIH-3T3 fibroblast cytotoxicity, dose response, cytotoxicity control, cell-based, fluorescence, Alamar Blue, secondary assay (AID 2327); format: functional;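 also: NIH-3T3 mouse fibroblasts cultured with fluconazole at 8 µg/mL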
# [3] = luciferase reporter signal suppression in cells – H4 neuroglioma cells, luminescence, dose response (AID 1990); format: functional, cell-based
# [4] = Luminescence Cell-Based Dose Response HTS to Identify Inhibitors of 5'UTR Stem-Loop Driven Prion Protein mRNA Translation in H4 Neuroglioblastoma Cells. [Related pubchem assays: 1827 (Project Summary), 1813 (Primary HTS)]; format: functional
# [5] = alpha-synuclein stem-loop luciferase translation blockers – H4 neuroglioma cells, luminescence, confirmation (AID 1988); format: functional, cell-based
# [6] = Luminescence Cell-Based Dose Confirmation HTS to Identify Inhibitors of Platelet Dense Granule Release. [Related pubchem assays: 1663 (Primary HTS), 1678 (Summary of Project)]; format: functional
# [7] = molecular target: Luciferin 4-monooxygenase (Photinus pyralis, UniProt P08659); assay: inhibition of purified Photinus pyralis luciferase – biochemical, luminescence, dose response (AID 1891)
# Sequence of Luciferin 4-monooxygenase (P08659 whole entry): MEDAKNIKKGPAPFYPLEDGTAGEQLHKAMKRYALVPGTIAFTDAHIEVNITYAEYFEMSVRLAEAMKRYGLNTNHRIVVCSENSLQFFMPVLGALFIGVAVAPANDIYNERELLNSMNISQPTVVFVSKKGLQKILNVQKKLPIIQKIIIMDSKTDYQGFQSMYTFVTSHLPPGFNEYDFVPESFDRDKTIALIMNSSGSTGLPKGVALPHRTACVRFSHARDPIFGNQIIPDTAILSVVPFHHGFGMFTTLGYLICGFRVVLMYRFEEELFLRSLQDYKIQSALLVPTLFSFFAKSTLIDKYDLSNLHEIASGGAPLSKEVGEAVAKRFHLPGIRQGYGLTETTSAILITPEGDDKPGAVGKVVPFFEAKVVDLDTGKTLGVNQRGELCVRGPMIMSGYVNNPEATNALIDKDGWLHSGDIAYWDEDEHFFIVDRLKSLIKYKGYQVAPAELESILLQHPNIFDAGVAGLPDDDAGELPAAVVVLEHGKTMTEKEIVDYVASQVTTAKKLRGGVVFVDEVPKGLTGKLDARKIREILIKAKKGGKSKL
# [8] = molecular target: T1, Calpain-2 catalytic subunit (Sus scrofa, UniProt P43367); assay: m-calpain protease blockers, concentration series – biochemical, fluorogenic peptide substrate, dose response (AID 1420); format: functional
# T1 sequence (P43367 whole entry): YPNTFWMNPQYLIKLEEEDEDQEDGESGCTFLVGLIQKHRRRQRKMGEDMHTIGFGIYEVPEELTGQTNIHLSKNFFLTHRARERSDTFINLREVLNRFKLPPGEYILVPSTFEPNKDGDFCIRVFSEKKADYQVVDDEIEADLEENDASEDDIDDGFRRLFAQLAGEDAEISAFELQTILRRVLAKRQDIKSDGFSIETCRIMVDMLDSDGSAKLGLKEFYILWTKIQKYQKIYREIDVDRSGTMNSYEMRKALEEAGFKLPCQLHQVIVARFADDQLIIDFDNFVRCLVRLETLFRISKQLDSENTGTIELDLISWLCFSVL
# Streptococcus = assay: GAS UMAA2166 growth inhibition – luminescence, BacTiterGlo, counter-screen for streptokinase expression inhibitor project, dose response (AID 1915); format: functional, organism-based;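 also: potency for reduction of bacterial viability or growth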
# [9] = system: Streptococcus sp. 'group A'; assay: Streptococcus pyogenes SK(-)GAS viability under kanamycin – luminescence, BacTiterGlo, confirmation, counter-screen for streptokinase expression inhibitor project, dose response (AID 1900); format: functional, organism-based
# Streptokinase A = molecular target: T2, Streptokinase A (Streptococcus pyogenes serotype M1, UniProt P10520); assay: viability-normalized secreted streptokinase activity reduction – plasminogen activation absorbance, OD405, dose response (AID 1914); format: functional, Streptococcus pyogenes M1 GAS;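 also: secreted streptokinase activity via plasminogen activation per viability signal from cell pellet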
# T2 sequence (P10520 whole entry): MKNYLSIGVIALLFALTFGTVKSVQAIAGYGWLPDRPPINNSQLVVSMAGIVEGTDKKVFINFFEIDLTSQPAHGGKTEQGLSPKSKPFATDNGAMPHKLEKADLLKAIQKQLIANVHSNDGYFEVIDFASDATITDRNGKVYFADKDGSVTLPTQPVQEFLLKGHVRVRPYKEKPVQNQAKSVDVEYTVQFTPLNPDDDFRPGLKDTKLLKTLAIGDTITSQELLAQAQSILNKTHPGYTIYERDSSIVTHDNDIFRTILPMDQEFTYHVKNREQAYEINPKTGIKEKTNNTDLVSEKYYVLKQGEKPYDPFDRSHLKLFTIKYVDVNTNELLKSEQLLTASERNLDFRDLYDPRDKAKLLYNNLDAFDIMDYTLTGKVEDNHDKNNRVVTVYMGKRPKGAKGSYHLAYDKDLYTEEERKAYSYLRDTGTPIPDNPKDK
# [10] = molecular target: T3, Corticotropin-releasing factor receptor 2/Corticotropin-releasing factor-binding protein (Homo sapiens, UniProt P24387+Q13324); assay: activators of CRF receptor 2 with binding protein – uHTS hits, confirmation (AID 602473); format: functional; conditions: read-out: EC50_Mean
# T3 sequence (Q13324 whole entry): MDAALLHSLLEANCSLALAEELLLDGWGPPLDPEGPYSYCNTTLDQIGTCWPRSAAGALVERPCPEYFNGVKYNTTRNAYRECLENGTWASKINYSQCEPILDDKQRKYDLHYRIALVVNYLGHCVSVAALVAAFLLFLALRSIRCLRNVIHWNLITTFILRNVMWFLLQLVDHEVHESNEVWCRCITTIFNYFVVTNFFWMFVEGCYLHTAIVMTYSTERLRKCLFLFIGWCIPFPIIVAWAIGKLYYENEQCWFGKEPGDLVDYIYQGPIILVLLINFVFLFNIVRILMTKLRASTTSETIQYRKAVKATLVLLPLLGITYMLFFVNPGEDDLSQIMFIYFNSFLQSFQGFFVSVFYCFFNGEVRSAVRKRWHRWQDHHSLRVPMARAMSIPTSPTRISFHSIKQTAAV
# T3 sequence (P24387 whole entry): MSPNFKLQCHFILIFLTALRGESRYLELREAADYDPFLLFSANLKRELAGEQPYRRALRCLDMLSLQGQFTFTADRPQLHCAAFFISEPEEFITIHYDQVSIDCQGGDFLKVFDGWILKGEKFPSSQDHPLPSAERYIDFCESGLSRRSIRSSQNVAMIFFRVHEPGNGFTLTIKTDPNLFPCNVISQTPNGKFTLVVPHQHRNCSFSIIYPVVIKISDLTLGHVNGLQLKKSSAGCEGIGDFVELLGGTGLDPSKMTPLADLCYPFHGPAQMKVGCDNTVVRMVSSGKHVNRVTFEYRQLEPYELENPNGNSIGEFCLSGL
# Paired box protein Pax-8 = Paired box protein Pax-8 (Homo sapiens, UniProt Q06710); assay: PAX8 transcriptional activity inhibition in RMG-I – RMG-I cells, luciferase, cherry-pick, dose response (AID 687027); format: functional, cell-based;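 also: luciferase reporter driven by Pax8 target thyroperoxidase promoter measured by SteadyGlo luminescence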
# Sequence of Paired box protein Pax-8 (Q06710 whole entry, the tested form may be a part): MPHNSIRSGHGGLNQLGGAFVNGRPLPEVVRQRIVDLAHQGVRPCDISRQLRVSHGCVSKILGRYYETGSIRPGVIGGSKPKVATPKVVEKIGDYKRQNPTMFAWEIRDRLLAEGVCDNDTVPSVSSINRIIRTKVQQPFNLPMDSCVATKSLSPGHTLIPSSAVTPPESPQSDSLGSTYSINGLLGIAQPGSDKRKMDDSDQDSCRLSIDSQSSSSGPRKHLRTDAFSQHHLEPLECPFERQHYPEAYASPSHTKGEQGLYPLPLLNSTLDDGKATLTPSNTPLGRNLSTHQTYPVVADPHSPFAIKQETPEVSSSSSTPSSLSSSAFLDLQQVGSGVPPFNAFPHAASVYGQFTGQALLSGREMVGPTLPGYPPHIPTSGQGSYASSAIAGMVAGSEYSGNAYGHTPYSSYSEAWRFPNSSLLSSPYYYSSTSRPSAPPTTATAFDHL
# [11] = blockers of HIV-1 ZM109 envelope-driven cell-cell fusion – HeLa effector, CEM target cells, luciferase, cherry-pick, dose response (AID 652058); format: functional, cell-based;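 also: luciferase signal from HIV-1 Env mediated cell-cell fusion of effector and target cells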
# [12] = blockers of HIV-1 envelope-mediated cell-cell fusion – cherry-pick, dose response (AID 652057); format: functional, cell-based
# [13] = HIV-1 AD8 envelope cell-cell fusion blockers – cherry-pick, dose response (AID 652062); format: functional, cell-based;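 also: luciferase signal from cell-cell fusion driven by HIV-1 clade B AD8 Env; potency is for inhibitors of fusion seen as a drop in luminescence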
# H9c2 = assay: cells; format: functional, cell-based; conditions: Rattus norvegicus, H9c2, Myocardium;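 also: confirmatory concentration-response retest of ultra-high-throughput screening hits for modulation of myocardial damage; cell death induced by hydrogen peroxide oxidative stress; compound pretreatment for 60 min then peroxide exposure for 2 h; potency is for protecting the cells against peroxide damage rather than for killing them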
smiles,measurement,setting,value
O=C(Nc1ccncc1)c1ccc(Br)cc1,EC50,[1],> 38 µM (not active)
same,EC50,[2],> 150 µM (inactive)
CC(C)OC(=O)c1cc2c(ccn2C)n1CC(=O)N(Cc1ccccc1)c1ccccc1,EC50,[3],> 120 µM (not active)
same,EC50,[4],> 120 µM (not active)
same,EC50,[5],13.7 µM (active)
COc1ccc(NC(=O)CSc2ccccn2)c([N+](=O)[O-])c1,EC50,[6],> 112 µM (not active)
same,EC50,[7],> 112 µM (not active)
CNC(=O)COC(=O)c1c2c(nc3ccccc13)CCC2,EC50,[1],> 38 µM (not active)
same,EC50,[2],> 160 µM (inactive)
c1ccc(-c2cn(-c3ccccc3)c3ncnc(N4CCCCC4)c23)cc1,IC50,[8],5.36 µM (not active)
Cc1ccc(CNC(=O)CN=C(S)N(Cc2ccccc2)Cc2ccccc2F)cc1,IC50,[8],5.45 µM (not active)
CCOc1ccccc1C(=O)N1c2ccccc2Sc2ccccc21,IC50,[8],4.06 µM (not active)
CSc1ccc(/C=C(/NC(=O)c2ccco2)C(=O)N2CCCCC2)cc1,EC50,[6],17.5 µM (active)
same,EC50,[7],> 112 µM (not active)
O=C(O)C1C2C=CC(O2)C1C(=O)NCCCn1ccnc1 (stereo unspecified),EC50,[6],> 112 µM (not active)
same,EC50,[7],> 112 µM (not active)
N=C(NOC(=O)c1ccc2ccccc2c1)c1ccccn1,EC50,[6],1.53 µM (active)
same,EC50,[7],0.596 µM (active)
Cc1ccc(C)c(N(C(=O)Cc2cccs2)C(C(=O)NC2CCCC2)c2ccc(C)o2)c1 (stereo unspecified),IC50,[8],7.05 µM (not active)
O=C(NCC(=O)N(CC1CCCO1)C(C(=O)NC1CCCCC1)c1ccccc1)c1ccco1 (stereo unspecified),EC50,[1],6.52 µM (active)
same,EC50,[2],> 150 µM (inactive)
CCCC1=NN2C(=N)/C(=C\c3cc(C)n(-c4cc(C)cc(C)c4)c3C)C(=O)N=C2S1,EC50,Streptococcus,18.7 µM (active)
same,EC50,[9],1.63 µM (active)
same,EC50,Streptokinase A,5.85 µM (active)
same,EC50,[10],9.04 µM (active)
CCCC(=O)C1=C(N2CCCC2)CC(C)(C)C(C(=O)OC)C1=O (stereo unspecified),EC50,[6],> 112 µM (not active)
same,EC50,[7],> 112 µM (not active)
CN(C)C(=O)C(=O)c1c(-c2ccccc2)cc2ccccn12,IC50,[8],> 50 µM (not active)
O=C(N/N=C/c1sc(N2CCCCC2)nc1-c1cccs1)c1cccnc1,EC50,[1],> 38 µM (not active)
same,EC50,[2],> 160 µM (inconclusive)
Cc1cc(OCC(=O)NNC(=S)NC(=O)c2cccs2)ccc1Cl,EC50,[1],2.09 µM (active)
same,EC50,[2],74.8 µM (active)
C[C@@H]1CN([C@@H](C)CO)C(=O)Cc2cc(NC(=O)Nc3ccc(F)cc3)ccc2O[C@H]1CN(C)Cc1ccc(Cl)c(Cl)c1,AC50,Paired box protein Pax-8,5.72 µM (active)
CCOC(=O)c1c(NC(=O)CSc2nnnn2C)sc(C)c1-c1ccc(C)cc1,IC50,[8],5.1 µM (not active)
COc1ccccc1NC(=O)CSc1nc(O)c2c(C)cc(C)nc2n1,EC50,[6],> 112 µM (not active)
same,EC50,[7],> 112 µM (not active)
Cc1onc(-c2ccccc2)c1C(=O)NC(=S)NNC(=O)c1cccnc1,EC50,[1],> 38 µM (not active)
same,EC50,[2],> 160 µM (inactive)
C[C@H](CO)N1C[C@H](C)[C@H](CN(C)S(=O)(=O)c2ccc(F)cc2)Oc2ccc(NC(=O)Nc3cccc4ccccc34)cc2CC1=O,AC50,[11],0.483 µM (active)
same,AC50,[12],< 0.26 µM (active)
same,AC50,[13],1.27 µM (active)
COc1ccc(CSc2ncnc3sccc23)cc1F,EC50,[6],> 112 µM (not active)
same,EC50,[7],> 112 µM (not active)
COc1ccc(-n2c(C)c(C(C)=O)c(C(C)=O)c2C)cc1OC,EC50,[6],> 112 µM (not active)
same,EC50,[7],> 112 µM (not active)
Cc1nc2ncnn2c(Nc2ccc3c(c2)OCO3)c1Cc1ccccc1,EC50,[3],43.7 µM (active)
same,EC50,[4],> 120 µM (not active)
same,EC50,[5],> 120 µM (not active)
COc1ccc(NC(=S)N(CCCN2CCOCC2)Cc2cn(C)c3ccccc23)cc1,IC50,[8],0.737 µM (not active)
COc1ccc(C(=O)NNC(=S)NC(=O)c2ccc(OC)cc2)cc1,EC50,[10],5.09 µM (active)
CCOC(=O)c1c(C)[nH]c(C)c1S(=O)(=O)NCC(=O)Nc1ccccn1,EC50,[6],> 112 µM (not active)
same,EC50,[7],> 112 µM (not active)
CC(C)CC#Cc1ccc2c(c1)O[C@@H](CN(C)Cc1ccccn1)[C@H](C)CN([C@H](C)CO)S2(=O)=O,AC50,[11],31.9 µM (active)
same,AC50,[12],26.1 µM (active)
same,AC50,[13],26 µM (active)
Cc1ccc(S(=O)(=O)Nc2ccc3c(c2)C(=O)N([C@@H](C)CO)C[C@@H](C)[C@@H](CN(C)Cc2ccc(C(F)(F)F)cc2)OCCCC[C@H](C)O3)cc1,AC50,Paired box protein Pax-8,9.16 µM (active)
CC/C(=N\CCc1c(C)[nH]c2ccc(OC(F)(F)F)cc12)C1=C(O)CC(c2ccccc2)CC1=O (stereo unspecified),EC50,[3],10.7 µM (active)
same,EC50,[4],16.8 µM (active)
same,EC50,[5],8.9 µM (active)
CCCCNCCOCCOc1ccc(F)cc1,EC50,[6],> 112 µM (not active)
same,EC50,[7],> 112 µM (not active)
Cn1c(NCc2ccco2)nc2c1c(=O)n(Cc1ccc(Cl)cc1)c(=O)n2C,EC50,[3],16.9 µM (active)
same,IC50,H9c2,> 79 µM (inactive)
same,IC50,[8],1.88 µM (not active)
same,EC50,[5],> 120 µM (not active)
COc1ccc(NC(=O)c2noc(C(C)C)c2[N+](=O)[O-])cc1,IC50,[8],9.64 µM (not active)
O=C(c1ccco1)N1CCCN(Cc2nc(-c3cccs3)no2)CC1,EC50,[6],25 µM (active)
same,EC50,[7],> 112 µM (not active)
O=C(NCCc1csc(-c2cccnc2)n1)c1ccc(Br)o1,IC50,[8],< 0.4 µM (not active)
O=C(COS(=O)c1ccccc1)Nc1cc(Cl)ccc1N1CCOCC1 (stereo unspecified),EC50,[1],2.82 µM (active)
same,EC50,[2],> 160 µM (inconclusive)
